The test system of test [1] is human translation (HEK 293F lysate). Briefly: Human in vitro translation (HsIVT) assay, HEK 293F lysate, luciferase reporter. In kind it is biochemical. The settings on record: for effect on translation in the HsIVT assay (Fig. S3A): 10 µM, three technical replicates; for IC50: weighted mean ± SD from at least two biological replicates, read-out: IC50 in the HsIVT assay (Fig. S3B). The source says:
(§1) Our P. falciparum in vitro translation (PfIVT) assay is built upon previously established assays ([14], [17]) and is summarized in Fig. 1A. In this assay, successful reconstitution of Plasmodium protein translation is reported via synthesis of a luciferase reporter. For PfIVT, two independent untranslated regions (UTRs), previously shown to promote strong levels of translation ([17]), were introduced upstream and downstream of the luciferase. The 5′ UTR from P. falciparum histidine-rich protein 3 (PfHrp3) ([18]) was introduced upstream of the reporter gene, and the 3′ UTR from P. falciparum histidine-rich protein 2 (PfHrp2) gene ([19]) was introduced downstream. For the reporter construct to support our complementary human IVT assay (HsIVT), the 5′ UTR was replaced with an internal ribosome entry site (IRES) from encephalomyocarditis virus (EMCV) ([20]) and the 3′ UTR was replaced with a poly(A) tail ([21]). […] Finally, a 30-bp poly(A) tail, present within the vector and downstream of the luciferase gene, was inserted to enhance mRNA stability ([21]).
(§2) Translationally active P. falciparum or human embryonic kidney (HEK) 293F lysates were supplemented with accessory, helper, amino acid, and energy regeneration solutions (see Materials and Methods for details). In vitro translation reactions were initiated by the addition of purified mRNA to each reaction well. Using this basic assay format, a number of parameters were assessed and optimized, namely, assay temperature, time, mRNA concentration, and reaction volume (summarized in Fig. S2 in the supplemental material). In addition, we compared the luminescence signal of the CBG firefly luciferase with CBG99, derived from the click beetle […] ([18]).
FreeStyle human embryonic kidney (HEK) 293F cells (Thermo Fisher Scientific) were grown in 500-mL polycarbonate Erlenmeyer vented flasks (Corning) containing FreeStyle 293 expression medium (Life Technologies) upon reaching a density of approximately 2 × 10^6. Cells were then centrifuged at 1,000 × g for 10 min at 4°C, the medium was discarded, and the resulting pellet was washed once in buffer II containing 20 U of human placental RNase inhibitor (Sigma-Aldrich) and cOmplete EDTA-free inhibitor cocktail (Roche) before being centrifuged at 2,800 × g for 10 min. Clarified HEK cell lysate was obtained in the same way as described for P. falciparum lysate.
PfIVT and HsIVT reactions (5 μL final volume) were performed in 384-well plates (Corning) containing 50% lysate from cells (either P. falciparum or HEK 293F), 10% amino acid solution (final concentration of 400 μM for each amino acid in 60 mM KOH; biotechrabbit), 10% energy recovery solution (final assay concentrations of 40 mM HEPES [pH 7.4], 1.5 mM ATP, 0.15 mM GTP, […] creatine phosphate, and 40 U/mL creatine phosphokinase), 10% helper solution (final assay concentrations of 200 μM cystine, 2% polyethylene glycol 3000 [PEG 3000], 1 mM spermidine, 0.5 mM folinic acid, and 15 μM leupeptin), 10% supplemental salt solution (22.5 mM HEPES [pH 7.4], 50 mM potassium acetate, 1 mM magnesium acetate, 1 mM DTT, 1 U/mL human placental RNase inhibitor, 0.1 mM leupeptin), and 10% cbg99 luciferase mRNA (3,000 ng/mL). A master mix solution containing all components was prepared on ice prior to assays, and 5 μL was dispensed into wells using an automated Integra VIAFLO 16-channel 12.5-μL pipette.
(In general: Reporter assays use an easily measured gene product as a stand-in for the process of interest.)

Test [2] addresses P. falciparum translation (P. falciparum lysate). Briefly: P. falciparum in vitro translation (PfIVT) assay, lysate-based, luciferase reporter. In kind it is biochemical, Plasmodium falciparum. Particulars: for IC50: established inhibitors of protein translation, read-out: IC50 values, µM PfIVT (Table S1).
Text: as §1, §2
3D7 parasites were synchronized following two rounds of treatment with D-sorbitol (5%), as previously described ([40]). The hematocrit was reduced from 5% (for standard culture) to 1.5 to 2% and cultures were transferred into HYPERflasks (Corning). Fresh medium was added once or twice daily. […] Harvested red blood cells (infected) were lysed by incubation in 0.1% (wt/vol) saponin on ice for 10 min with gentle agitation. Free parasites were harvested by centrifugation (2,800 × g, 10 min, 4°C) and washed 3 times in wash buffer (WB; 100 mM potassium acetate, 2.5 mM magnesium acetate, 45 mM HEPES [pH 7.4], 250 mM sucrose, 2 mM dithiothreitol, and 15 μM leupeptin) to remove lysed red blood cell debris. The resulting pellet was resuspended in 1 volume of WB supplemented with cOmplete EDTA-free protease inhibitor cocktail (Roche; 1 tablet/20 mL) and human RNase A inhibitor (Sigma; 5 U/mL). Parasite lysis was achieved by nitrogen cavitation using a prechilled 45-mL Parr cell disruption vessel (1,500 lb/in^2, 60 min, 4°C). To clarify the lysate, it was centrifuged (10,000 × g, 15 min, 4°C), and the supernatant was collected, transferred into fresh tubes, and centrifuged (30,000 × g, 15 min, 4°C). As a quality assurance step for each lysate, the RNA content of the resulting supernatant was determined using a NanoDrop spectrophotometer (Shimadzu). Supernatants with RNA levels of >250 ng/μL were aliquoted (100 μL), flash frozen in liquid nitrogen, and stored at −80°C.

In test [3] the test system is asexual-blood-stage (ABS) P. falciparum. Briefly: SYBR green-based P. falciparum asexual growth inhibition assay. In kind it is cell-based. Particulars: Plasmodium falciparum. On the procedure:
The Plasmodium falciparum reference strain 3D7 used throughout this study was cultured as previously described ([39]). Briefly, cultures incubated at 37°C in a humidified atmosphere of 1% O2 and 3% CO2 in balance with N2 were maintained in RPMI 1640 media supplemented with 5% A^+ human red blood cells (provided by the Scottish National Blood Transfusion Service), 25 mM HEPES, 2 mM L-glutamine, 0.5% AlbuMAX II (Gibco), 12 mM sodium bicarbonate, 0.2 mM hypoxanthine, and 20 mg/L gentamicin (pH 7.3).
Our SYBR green asexual-growth assay was based on a previous report ([45]). In brief, 96-well black clear-bottom plates (Corning) were preprinted with a compound and normalized with DMSO to 0.5% of a total assay volume of 100 μL. Highly synchronized ring-stage parasites and blood were added to a 2% final parasitemia and 1% hematocrit. The compounds were incubated with parasites for 72 h prior to freezing at −20°C (to aid cell lysis). The plate was thawed on ice and lysis buffer (20 mM Tris pH 7.5, 5 mM EDTA, 0.008% [w/v] saponin, […]) containing SYBR green I (Thermo Fisher Scientific) at a final concentration of 0.02% (v/v) was added. The 96-well plate was equilibrated to room temperature for 1 h before fluorescence was determined on a TECAN Infinite Pro 200 microplate reader using green fluorescent protein (GFP) filters (excitation, 485 nm; emission, 535 nm). Data were fitted to a two-parameter equation using GraFit version 7.0 (Erithacus Software), and EC50 values were calculated. An excess of the standard inhibitor mefloquine (10 μM) was used to define 0% parasite growth.

Setting [4] is: established inhibitors of protein translation, read-out: EC50 values, µM PfABS (Table S1).

Like-named read-outs stand apart in the source and are kept apart here. Some results are limits rather than exact numbers.

One may read the IC50 as the midpoint of a concentration-inhibition curve. The term EC50 denotes the concentration that produces a half-maximal response. As for `C[C@H]1CCC[C@H](C[C@H]2Cc3cc(O)cc(O)c3C(=O)O2)O1` [Cladosporin, cladosporin, reference compound], the “effect on translation in the HsIVT assay (Fig. S3A)” value (“effect on translation” below) in test [1] is reported as “little or no effect”. Further, the “activity in HsIVT assay at 100 μM” value in test [1] (100 μM) is “inactive”. Besides, the IC50 in test [2] was determined as 13 µM. Further, the EC50 in test [3] (setting [4]) is 0.07 µM.
Turning to `NCCCC[C@H](N)C(=O)NS(=O)(=O)OC[C@H]1O[C@@H](n2cnc3c(N)ncnc32)[C@H](O)[C@@H]1O` [DDD01712277, reference compound], the IC50 in test [2] is 0.2 µM. The EC50 in test [3] (setting [4]) is 0.1 µM.
As for `C[C@@H]1C[C@@H]([C@H](O)CC2CC(=O)NC(=O)C2)C(=O)[C@@H](C)C1` [Cycloheximide, cycloheximide, reference compound], in test [1], the “inhibition of translation in HsIVT assay (validation)” value (shortened to “inhibition … (validation)”) is “successfully inhibit translation”, the “effect on translation” value is “ablated activity” and the IC50 stood at 1200 ± 40 nM. The IC50 in test [2] amounted to 0.5 µM. Further, the half-maximal effective concentration (EC50) in test [3] (read-out: EC50 values, µM PfABS (Table S1)) turned out to be 0.1 µM.
As for `CC[C@H]1CN2CCc3cc(OC)c(OC)cc3[C@@H]2C[C@@H]1C[C@H]1NCCc2cc(OC)c(OC)cc21` [Emetine, emetine, reference compound], in test [1], the “inhibition … (validation)” value is “successfully inhibit translation”, the “effect on translation” value is “ablated activity” and the IC50 came to 800 ± 100 nM. In addition, the IC50 in test [2] was 1.8 µM. Further, the EC50 in test [3] (setting [4]) came to 0.03 µM.
Regarding `O=C(NCCN1CCCC1)c1cc(-c2ccc(CN3CCOCC3)cc2Cl)nc2ccc(F)cc12` [DDD00197451, reference compound], in test [2], the IC50 was found to be 0.5 µM. Also, in test [2] (internal control in all plates of the single-point screens), the “inhibition of translation (PfIVT), internal control” value was above 97%. Besides, the EC50 in test [3] (setting [4]) was 0.003 µM.
Take `O=C(Nc1ccc(F)c(-c2nc3cc(-c4ccccc4)cnc3[nH]2)c1)N1CCCC1` [MMV688372]: in test [2] (single-point screen, 30 μM, Pathogen Box), the “PfIVT inhibition at 30 μM (%)” value is reported as 62.9%. Moreover, the EC50 in test [3] (3D7, 72 h, read-out: P. falciparum asexual-blood-stage EC50) amounted to 13.6 µM; in test [3] (read-out: EC50 against P. falciparum (text)), 14 µM.
Turning to `O=C(NCCN1CCCC1)c1cc(-c2ccc(CN3CCOCC3)cc2)nc2ccc(F)cc12` [DDD107498/M5717, reference compound], the “effect on translation” value in test [1] is reported as “little or no effect”. For the same compound, the IC50 in test [2] was found to be 0.1 µM. In test [3] (setting [4]), the half-maximal effective concentration (EC50) is 0.0008 µM.
Take `O=C(CC1NCCCC1O)Cn1cnc2cc(Br)c(Cl)cc2c1=O` (stereo not drawn) [Halofuginone, halofuginone, reference compound]: in test [1], the “inhibition … (validation)” value was “successfully inhibit translation”, the “effect on translation” value was “ablated activity” and the 50% inhibitory concentration (IC50) was found to be 1700 ± 40 nM. Besides, the IC50 in test [2] came out at 0.3 µM. The EC50 in test [3] (setting [4]) came to 0.0004 µM.

Source of the values: PMC9211397, “High-Throughput Screening Platform To Identify Inhibitors of Protein Synthesis with Potential for the Treatment of Malaria” (Antimicrobial Agents and Chemotherapy, 2022).
